{"source": "patent US8952024B2", "about": "“Herbicidal pyrimidone derivatives” (E I du Pont de Nemours and Company, priority 2009, dated 2015)", "assay_in_all_cases": "Test D pre-/postemergence plant response", "type_in_all_cases": "in vivo", "details_in_all_cases": "Postemergence", "key": {"[1]": {"tested_on": "Russian thistle (Salsola kali)", "excerpt": "(§1) Seeds of plant species selected from bermudagrass (Cynodon dactylon), Surinam grass (Brachiaria decumbens), large crabgrass (Digitaria sanguinalis), green foxtail (Setaria viridis), goosegrass (Eleusine indica), johnsongrass (Sorghum halepense), kochia (Kochia scoparia), morningglory (pitted morningglory, Ipomoea lacunosa), nutsedge (purple nutsedge, Cyperus rotundus), ragweed (common ragweed, Ambrosia elatior), black mustard (Brassica nigra), guineagrass (Panicum maximum), dallisgrass (Paspalum dilatatum), barnyardgrass (Echinochloa crus-galli), sandbur (southern sandbur, Cenchrus echinatus), sowthistle (common sowthistle, Sonchus oleraceous), prickly sida (Sida spinosa), Italian ryegrass (Lolium multiflorum), purslane (common purslane, Portulaca oleracea), signalgrass (broadleaf signalgrass, Brachiaria platyphylla), groundsel (common groundsel, Senecio vulgaris), chickweed (common chickweed, Stellaria media), dayflower (Virginia (VA) dayflower, Commelina virginica), bluegrass (annual bluegrass, Poa annua), naked crabgrass (Digitaria nuda), itchgrass (Rottboellia cochinchinensis), quackgrass (Elytrigia repens), field bindweed (Convolvulus arvensis), spanishneedles (Bidens bipinnata), mallow (common mallow, Malva sylvestris) and Russian thistle (Salsola kali), were planted into a blend of loam soil and sand and treated preemergence with test chemicals formulated in a non-phytotoxic solvent mixture which included a surfactant. At the same time, plants from these weed species were treated with postemergence applications of the test chemicals formulated in the same manner. Plants ranged in height from 2 to 18 cm (1- to 4-leaf stage) for postemergence treatments.\n(§2) Treated plants and controls were maintained in a greenhouse for 14 to 21 days, after which time all species were visually evaluated and compared to controls. Plant response ratings, summarized in Table D, are based on a scale of 0 to 100 where 0 is no effect and 100 is complete control. A dash (-) response means no test result."}, "[2]": {"tested_on": "barnyardgrass (Echinochloa crus-galli)", "excerpt": "as §1, §2"}, "[3]": {"tested_on": "bermudagrass (Cynodon dactylon)", "excerpt": "as §1, §2"}, "[4]": {"tested_on": "black mustard (Brassica nigra)", "excerpt": "as §1, §2"}, "[5]": {"tested_on": "dallisgrass (Paspalum dilatatum)", "excerpt": "as §1, §2"}, "[6]": {"tested_on": "dayflower (Virginia (VA) dayflower, Commelina virginica)", "excerpt": "as §1, §2"}, "[7]": {"tested_on": "green foxtail (Setaria viridis)", "excerpt": "as §1, §2"}, "[8]": {"tested_on": "guineagrass (Panicum maximum)", "excerpt": "as §1, §2"}, "[9]": {"tested_on": "itchgrass (Rottboellia cochinchinensis)", "excerpt": "as §1, §2"}, "[10]": {"tested_on": "mallow (common mallow, Malva sylvestris)", "excerpt": "as §1, §2"}, "[11]": {"tested_on": "prickly sida (Sida spinosa)", "excerpt": "as §1, §2"}, "[12]": {"tested_on": "quackgrass (Elytrigia repens)", "excerpt": "as §1, §2"}, "[13]": {"tested_on": "ragweed (common ragweed, Ambrosia elatior)", "excerpt": "as §1, §2"}, "[14]": {"tested_on": "sandbur (southern sandbur, Cenchrus echinatus)", "excerpt": "as §1, §2"}, "[15]": {"tested_on": "signalgrass (broadleaf signalgrass, Brachiaria platyphylla)", "excerpt": "as §1, §2"}, "[16]": {"tested_on": "sowthistle (common sowthistle, Sonchus oleraceous)", "excerpt": "as §1, §2"}, "[17]": {"details": "250 g ai/ha, scale 0 to 100 (0 no effect, 100 complete control)"}, "[18]": {"details": "62 g ai/ha, scale 0 to 100 (0 no effect, 100 complete control)"}, "[19]": {"details": "125 g ai/ha, scale 0 to 100 (0 no effect, 100 complete control)"}}, "data": [{"smiles": "CCCCn1c(-c2ccccc2)ncc(C(=O)C2=C(O)C3CCC(C3)C2=O)c1=O", "note": "(stereo not drawn) [Compound 240]", "values": [{"measurement": "Plant response rating, Russian Thistle", "setting": "[1]; 31 g ai/ha, scale 0 to 100", "result": 35}, {"measurement": "Plant response rating, Russian Thistle", "setting": "[1]; [17]", "result": 35}, {"measurement": "Plant response rating, Russian Thistle", "setting": "[1]; [18]", "result": 35}, {"measurement": "Plant response rating, Barnyardgrass", "setting": "[2]; 31 g ai/ha, scale 0 to 100", "result": 80}, {"measurement": "Plant response rating, Barnyardgrass", "setting": "[2]; [19]", "result": 95}, {"measurement": "Plant response rating, Barnyardgrass", "setting": "[2]; [17]", "result": 95}, {"measurement": "Plant response rating, Barnyardgrass", "setting": "[2]; [18]", "result": 95}, {"measurement": "Plant response rating, Bermudagrass", "setting": "[3]; 31 g ai/ha, scale 0 to 100", "result": 85}, {"measurement": "Plant response rating, Bermudagrass", "setting": "[3]; [19]", "result": 95}, {"measurement": "Plant response rating, Bermudagrass", "setting": "[3]; [17]", "result": 95}, {"measurement": "Plant response rating, Bermudagrass", "setting": "[3]; [18]", "result": 95}, {"measurement": "Plant response rating, Black Mustard", "setting": "[4]; 31 g ai/ha, scale 0 to 100", "result": 70}, {"measurement": "Plant response rating, Black Mustard", "setting": "[4]; [19]", "result": 98}, {"measurement": "Plant response rating, Black Mustard", "setting": "[4]; [17]", "result": 98}, {"measurement": "Plant response rating, Black Mustard", "setting": "[4]; [18]", "result": 80}, {"measurement": "Plant response rating, Dallisgrass", "setting": "[5]; 31 g ai/ha, scale 0 to 100", "result": 5}, {"measurement": "Plant response rating, Dallisgrass", "setting": "[5]; [19]", "result": 75}, {"measurement": "Plant response rating, Dallisgrass", "setting": "[5]; [17]", "result": 75}, {"measurement": "Plant response rating, Dallisgrass", "setting": "[5]; [18]", "result": 70}, {"measurement": "Plant response rating, Dayflower, VA", "setting": "[6]; 31 g ai/ha, scale 0 to 100", "result": 35}, {"measurement": "Plant response rating, Dayflower, VA", "setting": "[6]; [19]", "result": 70}, {"measurement": "Plant response rating, Dayflower, VA", "setting": "[6]; [17]", "result": 75}, {"measurement": "Plant response rating, Dayflower, VA", "setting": "[6]; [18]", "result": 60}, {"measurement": "Plant response rating, Foxtail, Green", "setting": "[7]; 31 g ai/ha, scale 0 to 100", "result": 95}, {"measurement": "Plant response rating, Foxtail, Green", "setting": "[7]; [19]", "result": 98}, {"measurement": "Plant response rating, Foxtail, Green", "setting": "[7]; [17]", "result": 98}, {"measurement": "Plant response rating, Foxtail, Green", "setting": "[7]; [18]", "result": 98}, {"measurement": "Plant response rating, Guineagrass", "setting": "[8]; 31 g ai/ha, scale 0 to 100", "result": 40}, {"measurement": "Plant response rating, Guineagrass", "setting": "[8]; [19]", "result": 80}, {"measurement": "Plant response rating, Guineagrass", "setting": "[8]; [17]", "result": 80}, {"measurement": "Plant response rating, Guineagrass", "setting": "[8]; [18]", "result": 65}, {"measurement": "Plant response rating, Itchgrass", "setting": "[9]; 31 g ai/ha, scale 0 to 100", "result": 75}, {"measurement": "Plant response rating, Itchgrass", "setting": "[9]; [19]", "result": 80}, {"measurement": "Plant response rating, Itchgrass", "setting": "[9]; [17]", "result": 80}, {"measurement": "Plant response rating, Itchgrass", "setting": "[9]; [18]", "result": 75}, {"measurement": "Plant response rating, Mallow", "setting": "[10]; 31 g ai/ha, scale 0 to 100", "result": 10}, {"measurement": "Plant response rating, Mallow", "setting": "[10]; [19]", "result": 60}, {"measurement": "Plant response rating, Mallow", "setting": "[10]; [17]", "result": 60}, {"measurement": "Plant response rating, Mallow", "setting": "[10]; [18]", "result": 40}, {"measurement": "Plant response rating, Prickly Sida", "setting": "[11]; 31 g ai/ha, scale 0 to 100", "result": 35}, {"measurement": "Plant response rating, Prickly Sida", "setting": "[11]; [19]", "result": 75}, {"measurement": "Plant response rating, Prickly Sida", "setting": "[11]; [17]", "result": 75}, {"measurement": "Plant response rating, Prickly Sida", "setting": "[11]; [18]", "result": 65}, {"measurement": "Plant response rating, Quackgrass", "setting": "[12]; 31 g ai/ha, scale 0 to 100", "result": 25}, {"measurement": "Plant response rating, Quackgrass", "setting": "[12]; [19]", "result": 35}, {"measurement": "Plant response rating, Quackgrass", "setting": "[12]; [17]", "result": 50}, {"measurement": "Plant response rating, Quackgrass", "setting": "[12]; [18]", "result": 30}, {"measurement": "Plant response rating, Ragweed", "setting": "[13]; 31 g ai/ha, scale 0 to 100", "result": 70}, {"measurement": "Plant response rating, Ragweed", "setting": "[13]; [19]", "result": 80}, {"measurement": "Plant response rating, Ragweed", "setting": "[13]; [17]", "result": 90}, {"measurement": "Plant response rating, Ragweed", "setting": "[13]; [18]", "result": 75}, {"measurement": "Plant response rating, Sandbur", "setting": "[14]; 31 g ai/ha, scale 0 to 100", "result": 70}, {"measurement": "Plant response rating, Sandbur", "setting": "[14]; [19]", "result": 90}, {"measurement": "Plant response rating, Sandbur", "setting": "[14]; [17]", "result": 90}, {"measurement": "Plant response rating, Sandbur", "setting": "[14]; [18]", "result": 70}, {"measurement": "Plant response rating, Signalgrass", "setting": "[15]; 31 g ai/ha, scale 0 to 100", "result": 20}, {"measurement": "Plant response rating, Signalgrass", "setting": "[15]; [19]", "result": 75}, {"measurement": "Plant response rating, Signalgrass", "setting": "[15]; [17]", "result": 85}, {"measurement": "Plant response rating, Signalgrass", "setting": "[15]; [18]", "result": 75}, {"measurement": "Plant response rating, Sowthistle", "setting": "[16]; 31 g ai/ha, scale 0 to 100", "result": 98}, {"measurement": "Plant response rating, Sowthistle", "setting": "[16]; [19]", "result": 98}, {"measurement": "Plant response rating, Sowthistle", "setting": "[16]; [17]", "result": 98}, {"measurement": "Plant response rating, Sowthistle", "setting": "[16]; [18]", "result": 98}]}]}
